Test results published in US11311522B1 (Cavion, Inc., priority 2018, dated 2022).
“And” between values parts separate entries of the source, which are not always exact repeats. Identical values can stand only once.

Key:
[1] = tested on: patients with essential tremor; assay: T-CALM: TETRAS activities of daily living subscale; format: in vivo, human; conditions: for TETRAS-ADL Score, Median (minimum, maximum) / TETRAS-ADL Score, Mean (SD): post-hoc
Text: The sum of the individual scores provides the overall score, ranging from 0 to 48. The complete TETRAS ADL Subscale is as follows.
Rate tremor's impact on activities of daily living (0-4 scoring). • 1. Speaking • 0=Normal • 1=Slight voice tremulousness, only when “nervous”. • 2=Mild voice tremor. All words easily understood. • 3=Moderate voice tremor. Some words difficult to understand. • 4=Severe voice tremor. Most words difficult to understand. • 2. Feeding with a spoon • 0=Normal • 1=Slightly abnormal. […] Spills a little. • 3=Moderately abnormal. Spills a lot or changes strategy to complete task such as using two hands or leaning over. • 4=Severely abnormal Cannot feed with a spoon. • 3. Drinking from a glass • 0=Normal. • 1=Slightly abnormal. […] Spills a little. • 3=Moderately abnormal. Spills a lot or changes strategy to complete task such as using two hands or leaning over. • 4=Severely abnormal. Cannot drink from a glass or uses straw or sippy cup. • 4. Hygiene • 0=Normal. • 1=Slightly abnormal. […] Some difficulty but can complete task. • 3=Moderately abnormal. Unable to do most fine tasks such as putting on lipstick or shaving unless changes strategy such as using two hands or using the less affected hand. • 4=Severely abnormal. Cannot complete hygiene activities independently. • 5. Dressing • 0=Normal. • 1=Slightly abnormal. […] Able to do everything but has difficulty due to tremor. • 3=Moderately abnormal. Unable to do most dressing unless uses strategy such as using Velcro, buttoning shirt before putting it on or avoiding shoes with laces. • 4=Severely abnormal. Cannot dress independently. • 6. Pouring • 0=Normal. • 1=Slightly abnormal. […] Must be very careful to avoid spilling but may spill occasionally. • 3=Moderately abnormal. Must use two hands or uses other strategies to avoid spilling. • 4=Severely abnormal. Cannot pour. • 7. Carrying food trays, plates or similar items • 0=Normal • 1=Slightly abnormal. […] Must be very careful to avoid spilling items on food tray. • 3=Moderately abnormal. Uses strategies such as holding tightly against body to carry. • 4=Severely abnormal. Cannot carry food trays or similar items. • 8. Using Keys • 0=Normal • 1=Slightly abnormal. Tremor is present but can insert key with one hand without difficulty. • 2=Mildly abnormal. Commonly misses target but still routinely puts key in lock with one hand. • 3=Moderately abnormal. Needs to use two hands or other strategies to put key in lock. • 4=Severely abnormal. Cannot put key in lock. • 9. Writing • 0=Normal • 1=Slightly abnormal. […] Difficulty writing due to the tremor • 3=Moderately abnormal. Cannot write without using strategies such as holding the writing hand with the other hand, holding pen differently or using large pen. • 4=Severely abnormal. Cannot write. • 10. Working. If patient is retired, ask as if they were still working. If the patient is a housewife, ask the question as it relates to housework: • 0=Normal. • 1=Slightly abnormal. […] Tremor interferes with work; able to do everything, but with errors. • 3=Moderately abnormal. Unable to continue working without using strategies such as changing jobs or using special equipment. • 4=Severely abnormal. Cannot perform any job or household work. • 11. Overall disability with the most affected task (Name task, e.g. using computer mouse, writing, etc) • Task • 0=Normal. • 1=Slightly abnormal. […] Tremor interferes with task but is still able to perform task. • 3=Moderately abnormal. Can do task but must use strategies. • 4=Severely abnormal. Cannot do the task. • 12.
Analyses of the TETRAS-ADL was conducted using the same type of ANCOVA model as described for the TETRAS-PS, using two-sided tests at the alpha=0.05 level of significance (FIG. 2 and Table 2).

[2] = tested on: patients with essential tremor; assay: T-CALM: PK/PD, Cmin versus TETRAS-PS (Hill equation); format: in vivo, human
Text: Pharmacodynamic variables (Response) evaluated included change from baseline in TETRAS performance subscale, TETRAS activities of daily living, TETRAS total score.

Cav3.3 = target: T1, Cav3.3 (Homo sapiens, UniProt Q9P0X4); assay: Cav3.3 whole-cell voltage-clamp; format: cell-based
T1 construct: expressed in transfected cells; host or cells: HEK 293
T1 sequence (Q9P0X4 whole entry, species assumed): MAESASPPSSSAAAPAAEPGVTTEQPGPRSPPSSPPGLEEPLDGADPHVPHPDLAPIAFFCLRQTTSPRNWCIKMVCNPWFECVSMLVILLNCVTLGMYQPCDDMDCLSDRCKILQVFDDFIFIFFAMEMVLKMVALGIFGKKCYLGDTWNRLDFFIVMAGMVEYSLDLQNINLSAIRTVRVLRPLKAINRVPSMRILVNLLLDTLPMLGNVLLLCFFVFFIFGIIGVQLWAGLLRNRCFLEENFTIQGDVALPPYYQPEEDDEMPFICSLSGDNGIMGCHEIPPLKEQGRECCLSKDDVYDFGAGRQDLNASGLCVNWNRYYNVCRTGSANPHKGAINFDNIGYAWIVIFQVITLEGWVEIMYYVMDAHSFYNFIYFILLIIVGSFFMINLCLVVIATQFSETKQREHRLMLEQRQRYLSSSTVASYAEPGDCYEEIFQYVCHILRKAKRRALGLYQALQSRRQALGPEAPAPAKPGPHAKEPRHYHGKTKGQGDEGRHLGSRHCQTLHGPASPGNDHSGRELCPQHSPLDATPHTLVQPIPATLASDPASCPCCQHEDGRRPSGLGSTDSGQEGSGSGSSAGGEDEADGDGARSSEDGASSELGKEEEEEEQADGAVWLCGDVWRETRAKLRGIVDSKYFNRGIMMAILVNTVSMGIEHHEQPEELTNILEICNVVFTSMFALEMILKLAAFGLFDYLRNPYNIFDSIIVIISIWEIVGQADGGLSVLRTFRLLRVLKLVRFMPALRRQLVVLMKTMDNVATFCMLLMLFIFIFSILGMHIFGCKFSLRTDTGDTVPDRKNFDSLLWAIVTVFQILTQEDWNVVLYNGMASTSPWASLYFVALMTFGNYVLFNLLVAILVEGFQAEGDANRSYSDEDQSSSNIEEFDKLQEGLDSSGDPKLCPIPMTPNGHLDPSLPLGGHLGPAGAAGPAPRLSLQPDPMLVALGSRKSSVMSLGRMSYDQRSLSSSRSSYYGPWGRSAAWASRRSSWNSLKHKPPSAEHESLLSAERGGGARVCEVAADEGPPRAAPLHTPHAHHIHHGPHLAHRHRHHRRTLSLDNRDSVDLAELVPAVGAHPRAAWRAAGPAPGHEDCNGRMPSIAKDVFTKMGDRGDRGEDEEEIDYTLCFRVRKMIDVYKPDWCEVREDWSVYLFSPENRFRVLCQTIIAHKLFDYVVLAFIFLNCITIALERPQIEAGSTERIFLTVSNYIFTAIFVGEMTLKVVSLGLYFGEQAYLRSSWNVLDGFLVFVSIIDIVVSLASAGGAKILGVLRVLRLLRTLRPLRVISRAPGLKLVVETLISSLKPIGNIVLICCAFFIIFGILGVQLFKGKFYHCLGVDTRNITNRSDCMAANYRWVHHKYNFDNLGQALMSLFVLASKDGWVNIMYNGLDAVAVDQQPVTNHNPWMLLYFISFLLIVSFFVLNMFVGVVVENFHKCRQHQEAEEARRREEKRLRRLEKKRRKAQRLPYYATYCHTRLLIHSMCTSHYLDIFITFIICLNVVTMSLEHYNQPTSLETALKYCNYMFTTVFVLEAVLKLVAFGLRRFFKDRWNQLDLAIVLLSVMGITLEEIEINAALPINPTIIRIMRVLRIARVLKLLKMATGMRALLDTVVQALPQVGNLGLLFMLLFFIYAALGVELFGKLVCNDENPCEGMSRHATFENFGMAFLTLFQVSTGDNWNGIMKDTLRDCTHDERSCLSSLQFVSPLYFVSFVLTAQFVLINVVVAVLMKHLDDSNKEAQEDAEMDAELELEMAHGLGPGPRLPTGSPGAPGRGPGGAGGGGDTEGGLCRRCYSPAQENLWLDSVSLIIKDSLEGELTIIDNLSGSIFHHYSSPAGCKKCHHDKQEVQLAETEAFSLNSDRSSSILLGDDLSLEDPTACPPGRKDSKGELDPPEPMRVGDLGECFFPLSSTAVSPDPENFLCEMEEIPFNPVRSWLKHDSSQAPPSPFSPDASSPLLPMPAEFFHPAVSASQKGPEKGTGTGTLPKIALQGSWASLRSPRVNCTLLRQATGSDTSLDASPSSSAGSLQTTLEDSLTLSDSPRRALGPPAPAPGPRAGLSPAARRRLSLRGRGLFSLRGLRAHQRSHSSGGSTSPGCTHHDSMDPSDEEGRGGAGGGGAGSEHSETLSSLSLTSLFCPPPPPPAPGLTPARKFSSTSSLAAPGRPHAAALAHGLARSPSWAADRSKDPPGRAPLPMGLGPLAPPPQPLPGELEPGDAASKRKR

hERG = target: T2, hERG (Homo sapiens, UniProt Q12809); assay: hERG PatchXpress assay; format: cell-based; conditions: doses up to 30 μM
T2 construct: expressed in transfected cells; host or cells: CHO-K1
T2 sequence (Q12809 whole entry): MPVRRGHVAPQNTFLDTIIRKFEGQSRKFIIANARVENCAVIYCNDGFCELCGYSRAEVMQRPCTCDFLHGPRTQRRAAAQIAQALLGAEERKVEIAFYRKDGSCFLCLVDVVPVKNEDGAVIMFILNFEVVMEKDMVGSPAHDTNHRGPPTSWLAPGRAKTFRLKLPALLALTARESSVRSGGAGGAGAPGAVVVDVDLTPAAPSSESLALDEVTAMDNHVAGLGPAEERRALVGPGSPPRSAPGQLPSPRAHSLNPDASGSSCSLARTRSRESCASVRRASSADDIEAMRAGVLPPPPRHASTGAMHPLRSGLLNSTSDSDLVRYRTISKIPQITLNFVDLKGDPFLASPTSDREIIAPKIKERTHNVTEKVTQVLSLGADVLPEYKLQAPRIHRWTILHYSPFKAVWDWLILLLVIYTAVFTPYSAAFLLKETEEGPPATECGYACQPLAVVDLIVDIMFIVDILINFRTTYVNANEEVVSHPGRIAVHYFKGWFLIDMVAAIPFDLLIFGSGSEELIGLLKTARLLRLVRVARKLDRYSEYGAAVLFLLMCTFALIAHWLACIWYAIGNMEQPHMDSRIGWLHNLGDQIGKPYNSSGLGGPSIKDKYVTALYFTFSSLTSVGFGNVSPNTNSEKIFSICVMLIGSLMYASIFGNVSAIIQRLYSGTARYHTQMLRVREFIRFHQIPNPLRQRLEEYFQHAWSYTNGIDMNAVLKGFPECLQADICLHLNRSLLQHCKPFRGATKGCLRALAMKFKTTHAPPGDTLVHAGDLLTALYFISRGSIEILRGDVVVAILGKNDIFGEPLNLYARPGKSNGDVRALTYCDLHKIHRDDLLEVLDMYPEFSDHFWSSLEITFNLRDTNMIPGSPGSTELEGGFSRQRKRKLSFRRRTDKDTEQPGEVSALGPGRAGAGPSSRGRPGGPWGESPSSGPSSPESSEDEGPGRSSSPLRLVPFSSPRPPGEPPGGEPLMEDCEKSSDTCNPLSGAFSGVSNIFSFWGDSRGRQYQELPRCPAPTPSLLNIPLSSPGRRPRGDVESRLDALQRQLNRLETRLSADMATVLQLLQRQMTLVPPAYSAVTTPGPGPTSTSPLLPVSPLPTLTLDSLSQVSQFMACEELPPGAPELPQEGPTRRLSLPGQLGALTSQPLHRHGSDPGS

[3] = PN005: safety and tolerability; format: in vivo, human
Text: The visual disturbances tended to cease with eye opening and to recur with eye closure and were generally not disturbing to the subjects. […] No serious adverse events were reported, and none of the subjects discontinued treatment because of an adverse event. […] 5.3.3.1.3.2 Other Safety Assessments No clinically significant trends in safety laboratory parameters or vital signs were observed. […] No changes of ≥60 msec from baseline occurred, and no subject has a QTc interval ≥500 msec. […] The most common adverse events were headache, vivid dreams, and visual and/or auditory disturbances or hallucinations (typically described as seeing geometric shapes, colors, lights, and/or movement and hearing tones like from a telephone or electronic music). […] Clinical safety was monitored throughout the study by adverse events, clinical laboratory tests, vital signs, ECGs, and ECG telemetry.

[4] = in vivo
[5] = Day 15, patients Minimally Improved by PGIC, N=17
[6] = Day 28, patients Minimally Improved by CGI-I, N=15
[7] = Day 28, patients Minimally Improved by PGIC, N=10
[8] = single dose 8 mg, N = 7, middle-aged and elderly female subjects, Study PN005

## CC(C)c1ccc(CC(=O)N[C@H](C)c2ccc(OCC(F)(F)F)cn2)cc1 [CX-8998]
[1]; Day 15 (8 mg BID)
  Change from baseline in TETRAS-ADL, LS mean: −4.5±0.87 and −4.5
[1]; Day 15, patients Minimally Improved by CGI-I, N=19
  TETRAS-ADL Score, Median (minimum, maximum): −2.0
[1]; Day 15, patients Minimally Improved by CGI-I, N=19, reduction from baseline
  TETRAS-ADL Score, Mean (SD): −3.7 (4.21)
[1]; [5]
  TETRAS-ADL Score, Mean (SD): −3.3 (4.27)
  TETRAS-ADL Score, Median (minimum, maximum): −4.0
[1]; Day 28 (10 mg BID)
  Change from baseline in TETRAS-ADL, LS mean: −4.5±1.12 and −4.5
[1]; [6]
  TETRAS-ADL Score, Mean (SD): −4.4 (8.10)
  TETRAS-ADL Score, Median (minimum, maximum): −1.0 (−24, 3)
[1]; [7]
  TETRAS-ADL Score, Mean (SD): −1.6 (3.84)
  TETRAS-ADL Score, Median (minimum, maximum): −1.0 (−7, 3)
[1]; TETRAS-ADL, Day 15
  >5 to 10 point worsening: 0 n (%)
  >10 point worsening: 0 n (%)
[1]; TETRAS-ADL, Day 28
  0 change: 5 (13.5%) n (%)
  >0 to 1 point improvement: 2 (5.4%) n (%)
  >0 to 1 point worsening: 3 (8.1%) n (%)
  >1 to 2.5 point improvement: 3 (8.1%) n (%)
  >1 to 2.5 point worsening: 3 (8.1%) n (%)
  >2.5 to 5 point improvement: 7 (18.9%) n (%)
  >2.5 to 5 point worsening: 3 (8.1%) n (%)
  >5 to 10 point improvement: 6 (16.2) n (%)
  >5 to 10 point worsening: 0 n (%)
  >10 point improvement: 5 (13.5%) n (%)
  >10 point worsening: 0 n (%)
[2]; Cmin at steady state
  Emax, change from baseline in TETRAS-PS: approximately −4.1
[2]; Homo sapiens, TETRAS-PS
  EC50: ~0.25 µM
Cav3.3; Vh −80 mV
  IC50: ~0.084 µM and 0.084 µM
Cav3.3; Vh=−100 mV
  IC50: ~2.4 µM and 2.4 µM
hERG
  IC50: 28 µM
hERG; human, CHO-K1 cells expressing hERG
  IC20: 8.7 µM
[3]; single 8 mg dose
  Tolerability: well tolerated
[3]; [8]
  Alanine aminotransferase increased: 1 (14.3) n (%)
  At least 1 adverse event: 6 (85.7) n (%)
  Dry mouth: 1 (14.3) n (%)
  Eye Disorders: 1 (14.3) n (%)
  Gastrointestinal Disorders: 3 (42.9) n (%)
  Hot flush: 1 (14.3) n (%)
  Hypoaesthesia oral: 1 (14.3) n (%)
  Inappropriate laughter: 2 (28.6) n (%)
  Infections and Infestations: 1 (14.3) n (%)
  Investigations: 1 (14.3) n (%)
  Irritability: 1 (14.3) n (%)
  Nausea: 1 (14.3) n (%)
  Nervousness: 1 (14.3) n (%)
  Psychiatric Disorders: 4 (57.1) n (%)
  Racing thoughts: 1 (14.3) n (%)
  Shingles: 1 (14.3) n (%)
  Vascular Disorders: 1 (14.3) n (%)
  Vision blurred: 1 (14.3) n (%)
  Vomiting: 1 (14.3) n (%)
[4]
  Micronuclei induction in bone marrow result: negative
